# According to article PMC10518257 (Nature Cancer, 2023):
# Where “and” joins values, the source holds several entries; their conditions need not be identical. Equal entries are not always repeated. Where two headings read alike, the source gives them in different places.
# Tests used:
# Ba/F3 cells = assay: Growth inhibition assay in Ba/F3 cells (CellTiter-Glo, 72 h); format: cell-based; details: replicate Sets 1-3
# [1] = tested on: Ba/F3 cells expressing KIF5B–RET^V804L; assay: as above; format: cell-based; details: Ba/3-KIF5B-RET-V804L; replicate sets
# [2] = tested on: phosphorylation of RET^G810R, RET^G810S and RET^G810C in Ba/F3 cells; assay: Western blotting of RET phosphorylation in Ba/F3 KIF5B–RET cells; format: cell-based; details: 1 h, western blot
# [3] = tested on: LUAD-0002AS1 cells (KIF5B::RET); assay: Dose-response western blotting, EC50 for inhibition of protein phosphorylation; format: cell-based; details: Homo sapiens, LUAD-0002AS1, 2 h, densitometry
# HBECp53-EV cells = assay: Growth inhibition (alamarBlue, 96 h); format: cell-based, human; details: for raw viability signal (Source Data Fig. 3b-c): HBEC-EV, replicate sets
# [4] = tested on: HBECp53-RET cells (CCDC6-RET fusion); assay: Growth inhibition (alamarBlue, 96 h); format: cell-based, human; details: for raw viability signal (Source Data Fig. 3b-c): HBEC-RET, replicate sets
# LUAD-0057BS1 cells = assay: Growth inhibition (alamarBlue, 96 h); format: cell-based, human; details: for raw viability signal (Source Data Fig. 3b-c): LUAD-0057BS1, replicate sets
# MMNK1 cholangiocytes = assay: Growth inhibition (alamarBlue, 96 h); format: cell-based, human; details: for raw viability signal (Source Data Fig. 3b-c): MMNK, replicates
# [5] = tested on: Ba/F3 KIF5B–RET^WT allograft tumors; assay: Subcutaneous allograft efficacy study; format: in vivo, BALB/c nude mice; details: Ba/F3-KIF5B::RET, Ext. Data Fig. 9b
# [6] = Homo sapiens, 96 h, read-out: IC50 for Inhibition of Growth (95% CI)
compound,measurement,setting,value
CO[C@]1(C(=O)N[C@@H](C)c2ccc(-n3cc(F)cn3)nc2)CC[C@H](c2nc(C)cc(Nc3cc(C)[nH]n3)n2)CC1 [Pralsetinib],GI50,Ba/F3 cells; Ba/F3 (parental),1420 nM
same,GI50,"Ba/F3 cells; Mus musculus, BaF3, Ba/F3 (parental)",1070 nM
same,GI50,[1],10.6 nM and 6.67 nM and 4.32 nM
same,"block of phosphorylation of RET^G810R, RET^G810S or RET^G810C",[2],did not block
same,EC50,"[3]; read-out: EC50 for Inhibition of Protein Phosphorylation (95% CI), AKT S473",0.4 nM
same,EC50,"[3]; read-out: EC50 for Inhibition of Protein Phosphorylation (95% CI), ERK1/2 T202/Y204",3.5 nM
same,EC50,"[3]; read-out: EC50 for Inhibition of Protein Phosphorylation (95% CI), MEK1/2 S217/S221",0.9 nM
same,EC50,"[3]; read-out: EC50 for Inhibition of Protein Phosphorylation (95% CI), P70 RSK T421/S424",1.7 nM
same,EC50,"[3]; read-out: EC50 for Inhibition of Protein Phosphorylation (95% CI), RET Y905",1.1 nM
same,EC50,"[3]; read-out: EC50 for Inhibition of Protein Phosphorylation (95% CI), S6RP S235/S236",1.1 nM
same,raw viability signal (Source Data Fig. 3b-c),HBECp53-EV cells; 0.01 nM,18620.9 (2×) and 26084.1 and 32208.8
same,raw viability signal (Source Data Fig. 3b-c),HBECp53-EV cells; 0.1 nM,18754 (2×) and 26388.7 and 34047.4
same,raw viability signal (Source Data Fig. 3b-c),HBECp53-EV cells; 1 nM,20833.4 (2×) and 23057.6 and 32620.9
same,raw viability signal (Source Data Fig. 3b-c),HBECp53-EV cells; 10 nM,19432.8 (2×) and 24252.3 and 33045.2
same,raw viability signal (Source Data Fig. 3b-c),HBECp53-EV cells; 100 nM,20060.8 (2×) and 26236.5 and 33461.6
same,raw viability signal (Source Data Fig. 3b-c),HBECp53-EV cells; 1000 nM,13712.5 (2×) and 19031.7 and 36040.1
same,raw viability signal (Source Data Fig. 3b-c),HBECp53-EV cells; 10000 nM,6305.27 (2×) and 11469.7 and 22649.7
same,IC50,HBECp53-EV cells; [6],6900 nM
same,raw viability signal (Source Data Fig. 3b-c),[4]; 0.01 nM,15373.7 and 12510.4 and 10530.7 and 16787.4
same,raw viability signal (Source Data Fig. 3b-c),[4]; 0.1 nM,15070.3 and 13088.9 and 11587.4 and 17702.2
same,raw viability signal (Source Data Fig. 3b-c),[4]; 1 nM,15214.6 and 13110.8 and 10795 and 16054.2
same,raw viability signal (Source Data Fig. 3b-c),[4]; 10 nM,6804.19 and 10276.4 and 9347.81 and 15758.2
same,raw viability signal (Source Data Fig. 3b-c),[4]; 100 nM,3516.93 and 4294.46 and 3038.53 and 6985.58
same,raw viability signal (Source Data Fig. 3b-c),[4]; 1000 nM,2132.67 and 2668.84 and 1165.86 and 3483.36
same,raw viability signal (Source Data Fig. 3b-c),[4]; 10000 nM,830.793 and 1030.6 and 876.114 and 1589.72
same,IC50,"[4]; Homo sapiens, 96 h, read-out: IC50 for Inhibition of Growth (95% CI), HBECp53-RET, alamarBlue, 96 h",35 nM
same,IC50,LUAD-0057BS1 cells; [6],36 nM
same,raw viability signal (Source Data Fig. 3b-c),LUAD-0057BS1 cells; 0.01 nM,16595.3 and 17181.3 and 21729.4
same,raw viability signal (Source Data Fig. 3b-c),LUAD-0057BS1 cells; 0.1 nM,16479.6 and 19958 and 20455.1
same,raw viability signal (Source Data Fig. 3b-c),LUAD-0057BS1 cells; 1 nM,16334.3 and 18804.2 and 20595.3
same,raw viability signal (Source Data Fig. 3b-c),LUAD-0057BS1 cells; 10 nM,13376 and 14580.9 and 14292.2
same,raw viability signal (Source Data Fig. 3b-c),LUAD-0057BS1 cells; 100 nM,5525.42 and 5782.49 and 4569.11
same,raw viability signal (Source Data Fig. 3b-c),LUAD-0057BS1 cells; 1000 nM,1800.25 and 2058.52 and 1619.82
same,raw viability signal (Source Data Fig. 3b-c),LUAD-0057BS1 cells; 10000 nM,968.48 and 1261.32 and 1236.21
same,IC50,MMNK1 cholangiocytes; [6],1220 nM
same,raw viability signal (Source Data Fig. 3b-c),MMNK1 cholangiocytes; 0.01 nM,14061.5 and 14595.7
same,raw viability signal (Source Data Fig. 3b-c),MMNK1 cholangiocytes; 0.1 nM,14508.1 and 15314.3
same,raw viability signal (Source Data Fig. 3b-c),MMNK1 cholangiocytes; 1 nM,14527.4 and 15275.2
same,raw viability signal (Source Data Fig. 3b-c),MMNK1 cholangiocytes; 10 nM,14437.6 and 14593.5
same,raw viability signal (Source Data Fig. 3b-c),MMNK1 cholangiocytes; 100 nM,12743.6 and 12893.3
same,raw viability signal (Source Data Fig. 3b-c),MMNK1 cholangiocytes; 1000 nM,8417.95 and 8619.63
same,raw viability signal (Source Data Fig. 3b-c),MMNK1 cholangiocytes; 10000 nM,2073.73 and 2410.62
same,Tumor Volume Mean,"[5]; 3 mg/kg BID, Day 1",221.52 mm3
same,Tumor Volume Mean,"[5]; 3 mg/kg BID, Day 4",379.17 mm3
same,Tumor Volume Mean,"[5]; 3 mg/kg BID, Day 8",482.68 mm3
same,Tumor Volume Mean,"[5]; 3 mg/kg BID, Day 11",745.24 mm3
same,Tumor Volume Mean,"[5]; 3 mg/kg BID, Day 15",1198.84 mm3
same,Tumor Volume Mean,"[5]; 10 mg/kg BID, Day 1",212.85 mm3
same,Tumor Volume Mean,"[5]; 10 mg/kg BID, Day 4",215.66 mm3
same,Tumor Volume Mean,"[5]; 10 mg/kg BID, Day 8",297.15 mm3
same,Tumor Volume Mean,"[5]; 10 mg/kg BID, Day 11",403.26 mm3
same,Tumor Volume Mean,"[5]; 10 mg/kg BID, Day 15",433.99 mm3
same,Tumor Volume Mean,"[5]; 30 mg/kg BID, Day 1",218.49 mm3
same,Tumor Volume Mean,"[5]; 30 mg/kg BID, Day 4",127.84 mm3
same,Tumor Volume Mean,"[5]; 30 mg/kg BID, Day 8",80.68 mm3
